“And” between values parts separate entries of the source, which are not always exact repeats. Equal entries are not always repeated.
System: WM3248 melanoma cells, 486 antibodies
Assay: Reverse phase protein arrays (RPPA)
Assay type: cell-based, Human
Text: Pellets were snap frozen in liquid nitrogen and shipped to MD Anderson Cancer Center core RPPA facility for RPPA analysis (Table S5). Three biological replicates for each sample were generated.
Nomenclatures on the RPPA heatmaps: name_of_antibody.species_of_antibody.status_of_antibody. V - antibody validated; C - validation of antibody in progress; Q - antibody nonspecific; E – under evaluation; antibodies raised in M - mouse, G - goat, R - rabbit, or T - rat.

[1] = Norm_20: replicates 1-3 and Average, relative to 0
[2] = Norm_20, replicates 1-3 and Average, relative to Norm_0

CN(C)c1cccc(Nc2cc(-c3ccccc3)nc(C3CCNCC3)n2)c1 [ARN22089, N1,N1-dimethyl-N3-(6-phenyl-2-(piperidin-4-yl)pyrimidin-4-yl)benzene-1,3-diamine]
Shc_pY317.R.C normalized RPPA signal [1]: 0.757 and 1.584 and 1.301 and 1.214 | Slfn11.G.C normalized RPPA signal [1]: 1.108 and 1.363 and 1.188 | Smac.M.Q normalized RPPA signal [1]: 0.931 and 0.960 and 0.983 and 0.958 | Smad1.R.V normalized RPPA signal [1]: 0.987 and 0.977 and 1.047 and 1.004 | Smad3.R.V normalized RPPA signal [1]: 1.165 and 1.119 and 1.154 | Smad4.R.V normalized RPPA signal [1]: 1.296 and 1.077 and 0.835 | Snail.M.Q normalized RPPA signal [1]: 0.600 and 0.686 and 0.609 and 0.632 | Sox2.R.V normalized RPPA signal [1]: 1.375 and 1.408 and 0.996 and 1.260 | Sox17.R.V normalized RPPA signal [1]: 0.910 and 0.971 and 1.024 and 0.968 | Src.M.V normalized RPPA signal [1]: 0.856 and 0.994 and 0.844 and 0.898 | Src_pY416.R.V normalized RPPA signal [1]: 0.922 and 0.983 and 0.992 | Src_pY527.R.V normalized RPPA signal [1]: 1.101 and 1.696 and 1.289 | Stat1_pY701.R.V normalized RPPA signal [1]: 0.978 and 0.992 and 1.003 | Stat3.R.C normalized RPPA signal [1]: 0.916 and 0.933 and 0.984 and 0.944 | Stat3_pY705.R.C normalized RPPA signal [1]: 1.624 and 1.373 and 1.082 and 1.360 | Stat5a.R.V normalized RPPA signal [1]: 0.918 and 1.001 and 1.032 | Stathmin.1.R.V normalized RPPA signal [1]: 1.002 and 0.917 and 0.896 and 0.939 | Syk.M.V normalized RPPA signal [1]: 0.729 and 0.896 and 0.950 and 0.859 | Synaptophysin.R.C normalized RPPA signal [1]: 1.010 and 0.835 and 0.914 and 0.920 | TAZ.R.V normalized RPPA signal [1]: 0.593 and 0.609 and 0.746 | TEAD.R.C normalized RPPA signal [1]: 0.753 and 0.847 and 1.189 and 0.929 | TFAM.R.V normalized RPPA signal [1]: 1.017 and 0.908 and 0.988 | TFRC.R.V normalized RPPA signal [1]: 0.954 and 0.936 and 0.905 | TIGAR.R.V normalized RPPA signal [1]: 1.016 and 1.029 (2×) | TRAP1.M.V normalized RPPA signal [1]: 0.880 and 0.858 and 0.987 and 0.908 | TRIM24.R.C normalized RPPA signal [1]: 0.971 and 1.220 and 0.935 | TRIM25.R.C normalized RPPA signal [1]: 0.761 and 0.842 and 1.250 | TRIP13.R.V normalized RPPA signal [1]: 0.937 and 1.026 and 0.990 and 0.984 | Tau.M.C normalized RPPA signal [1]: 1.361 and 0.904 and 1.112 | Transglutaminase.M.V normalized RPPA signal [1]: 0.939 and 1.702 and 2.431 and 1.691 | A.Raf.R.V RPPA signal, normalized [2]: 1.150 and 0.931 and 1.016 | A.Raf_pS299.R.C RPPA signal, normalized [2]: 0.948 and 1.046 and 0.962 and 0.985 | ACC1.R.C RPPA signal, normalized [2]: 0.841 and 0.807 and 0.895 | ACC_pS79.R.V RPPA signal, normalized [2]: 1.085 and 0.894 and 1.442 and 1.140 | ACLY_pS455.R.V RPPA signal, normalized [2]: 0.968 and 1.117 and 1.143 and 1.076 | ACSL1.R.V RPPA signal, normalized [2]: 0.997 and 1.027 and 1.096 | ACVRL1.R.C RPPA signal, normalized [2]: 0.959 and 0.966 and 0.988 | ADAR1.M.V RPPA signal, normalized [2]: 1.103 and 1.393 and 0.980 and 1.159 | ALKBH5.R.V RPPA signal, normalized [2]: 1.265 and 1.161 and 1.050 and 1.159 | AMPK.a2_pS345.R.V RPPA signal, normalized [2]: 0.925 and 1.020 and 1.006 | AMPKa.R.C RPPA signal, normalized [2]: 0.976 and 1.132 and 1.050 | AMPKa_pT172.R.C RPPA signal, normalized [2]: 1.665 and 1.252 and 2.191 and 1.703 | AR.R.V RPPA signal, normalized [2]: 1.167 and 0.791 and 1.202 and 1.053 | ARID1A.R.C RPPA signal, normalized [2]: 2.135 and 2.023 and 0.945 and 1.701 | ASNS.R.V RPPA signal, normalized [2]: 1.259 and 1.098 (2×) | ATM.R.V RPPA signal, normalized [2]: 0.728 and 0.823 and 1.123 and 0.891 | ATM_pS1981.R.V RPPA signal, normalized [2]: 0.946 and 1.124 and 1.011 and 1.027 | ATP5A.M.C RPPA signal, normalized [2]: 1.004 and 1.426 and 2.191 and 1.541 | ATP5H.R.V RPPA signal, normalized [2]: 1.249 and 1.351 and 1.098 and 1.232 | ATR.R.V RPPA signal, normalized [2]: 0.925 and 0.998 and 0.989 | ATRX.R.C RPPA signal, normalized [2]: 0.884 and 1.433 and 1.198 and 1.172 | ATR_pS428.R.C RPPA signal, normalized [2]: 0.919 and 0.961 and 1.020 | AceCS1.R.V RPPA signal, normalized [2]: 1.098 and 1.011 and 1.293 and 1.134 | Akt1.R.V RPPA signal, normalized [2]: 0.716 and 0.687 and 1.263 and 0.889 | Akt1_pS473.R.V RPPA signal, normalized [2]: 0.845 and 0.816 and 0.918 | Akt2.R.V RPPA signal, normalized [2]: 0.702 and 0.698 and 0.824 | Akt2_pS474.R.C RPPA signal, normalized [2]: 0.820 and 1.141 and 0.958 | Akt.R.V RPPA signal, normalized [2]: 0.842 and 0.873 and 1.113 and 0.943 | Akt_pS473.R.V RPPA signal, normalized [2]: 0.693 and 1.281 and 1.006 | Akt_pT308.R.V RPPA signal, normalized [2]: 1.208 and 0.954 and 1.057 | Ambra1_pS52.R.C RPPA signal, normalized [2]: 0.983 and 1.063 and 0.981 and 1.009 | Annexin.I.M.V RPPA signal, normalized [2]: 0.955 and 0.906 and 1.304 and 1.055 | Annexin.VII.M.V RPPA signal, normalized [2]: 0.988 and 0.859 and 0.972 | Atg3.R.V RPPA signal, normalized [2]: 1.054 and 0.860 and 1.003 and 0.972 | Atg4B.R.C RPPA signal, normalized [2]: 0.929 and 1.167 and 0.972 and 1.023 | Atg5.R.C RPPA signal, normalized [2]: 1.021 and 0.787 and 1.106 and 0.971 | Atg7.R.V RPPA signal, normalized [2]: 0.883 and 0.847 and 0.979 and 0.903 | Aurora.A.R.C RPPA signal, normalized [2]: 1.019 and 1.110 and 1.013 | Aurora.ABC_pT288_pT232_pT198.R.C RPPA signal, normalized [2]: 0.769 and 0.934 | Aurora.B.R.V RPPA signal, normalized [2]: 1.525 and 1.546 and 1.302 and 1.458 | Axl.R.V RPPA signal, normalized [2]: 0.924 and 0.799 and 1.335 and 1.019 | B7.H3.R.C RPPA signal, normalized [2]: 1.111 and 0.745 and 0.965 and 0.940 | B7.H4.R.C RPPA signal, normalized [2]: 0.904 and 0.914 and 0.952 | B.Raf.R.C RPPA signal, normalized [2]: 0.818 and 0.836 and 1.274 and 0.976 | B.Raf_pS445.R.V RPPA signal, normalized [2]: 0.809 and 0.807 and 1.065 and 0.893 | BAP1.M.V RPPA signal, normalized [2]: 0.987 and 0.925 and 1.001 | BCL2A1.R.V RPPA signal, normalized [2]: 0.937 and 1.262 and 1.127 | BMK1.Erk5_pT218_Y220.R.V RPPA signal, normalized [2]: 0.876 and 0.918 and 0.861 and 0.885 | BRCA1.M.C RPPA signal, normalized [2]: 1.226 and 1.030 and 1.116 | BRD4.R.V RPPA signal, normalized [2]: 1.775 and 1.486 and 0.963 and 1.408 | Bad_pS112.R.V RPPA signal, normalized [2]: 1.169 | Bak.R.C RPPA signal, normalized [2]: 1.030 and 0.930 and 1.021 and 0.994
